As a reminder, the IC50 is the midpoint of a concentration-inhibition curve. Usually inhibition in vivo stands for the share of the control response that was lost under treatment.

The target of one data set is human P2X7 receptor (Homo sapiens (Human), UniProt Q99572, R270H). Description: Evaluation of a human P2X7 receptor inhibitory activity (Yo-Pro uptake, BzATP stimulation, FLIPR TETRA). It counts as cell-based. The following applies: 1321N1 cells stably expressing human P2X7 receptor, Yo-Pro fluorescence, class symbols. The method, boiled down:
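1321N1 cells stably expressing human P2X7 (T606C/G952A SNP variant) in HBSS/HEPES pH 7.4–7.5 were loaded with Yo-Pro and stimulated with BzATP on FLIPR TETRA. Compound was added 8 min later and fluorescence followed for 20 min. Inhibition scaled between no-compound (0%) and reference compound (100%); IC50 by logistic fit, reported in bins A–D.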

Another data set concerns the target human PXR (Homo sapiens (Human), UniProt O75469). In words: Evaluation of activation of human pregnane X receptor (PXR), DPX2 cells. In kind it is cell-based. The following applies: 48 hours, emission intensity divided by fluorescence intensity. The method, then:
A Human PXR activation (Puracyp, Inc.) kit was used for evaluation.
DPX2 cells expressing human PXR were seeded in a 96-well plate at a concentration of 40000 cells/well and cultured at 37° C. under 5% carbon dioxide for 24 hours (medium: culture medium for DPX2 cells containing 10% fetal bovine serum, antibiotics, sodium pyruvate, D-glucose, and phenol red). After culture for 24 hours, a DMSO solution of the compound of the present invention was diluted with a medium (dosing medium for DPX2 cells containing 10% fetal bovine serum, D-glucose, antibiotics, sodium pyruvate, and L-glutamine) so that the final concentration was 10 and 50 μM, and a rifampicin DMSO solution as a positive control drug was 0.2, 1, 2, and 20 μM. The medium was removed from the 96-well plate after culture for 24 hours. 100 μL of the solution of the compound of the present invention and 100 μL of the rifampicin solution prepared were added to each well, and cultured for 48 hours. The medium was removed from the 96-well plate after culture for 48 hours. 100 μL of each reaction mixture obtained by adding 5.25 μL of CellTiter-Fluor to 10.5 mL of TubeE was filled therein. The plate was set in a plate reader (PerkinElmer, Inc.) after culture for 1 hour to measure the fluorescence intensity at an interval of 0.1 seconds per well. The plate was taken out. 100 μL of a solution obtained by adding ONE-Glo Assay Substrate to ONE-Glo Assaybuffer was added to each well. After 2 minutes from the addition of the solution, the plate was set in the plate reader to measure the […] at an interval of 2 seconds per well. The PXR activity of the product of the present invention was a value obtained by dividing the emission intensity by the fluorescence intensity.

Data set [1] deals with partial sciatic nerve ligation model in rats. In words: Analgesic effect in a Seltzer model (partial sciatic nerve ligation), mechanical allodynia by von Frey filaments. In kind it is in vivo. Conditions: 1 h, rat, oral, 3 mg/kg, reversal of mechanical allodynia, approximately 1 to 5 hours after administration. The text has this:
Preparation of Partial Sciatic Nerve Ligation Model in Rats
Rats were anaesthetized using isoflurane/O2 inhalation anaesthesia. After induction of anesthesia, the left thigh was shaved. An incision was made in the skin just below the hip bone. The muscle was bluntly dissected to expose the sciatic nerve. About one half (½) of the sciatic nerve thickness was tightly ligated with a nylon thread and the wound was closed. The right thigh was used as a sham-operated control. The right thigh underwent an identical procedure with the left hind limb, however, the sciatic nerve was not manipulated or ligated.
Two weeks after nerve ligation, the effect on mechanical allodynia was assessed using a series of von Frey filaments. For habituation, the rats were placed into a plastic cage on a wire mesh bottom. Von Frey filaments (0.4 to 26 g) were applied to the plantar surface of the rat hind paws from the wire mesh side, and the value of the filament pressure at which the paw was withdrawn was used as a pain threshold. The measurement of mechanical sensitivity of the right and left hind paws was performed to obtain predose mechanical sensitivity. The rats showing the threshold change from 0.6 to 2 g (in nerve ligated side) and 8 to 15 g (in sham operated side) were used in the experiments. On the day before the experiment, the rats were evaluated with a series of von Frey filaments to familiarize them with the test procedure. The adopted animal was administrated with the compounds of the present invention. The compounds of the present invention were homogenized with mortar and pestle and suspended or diluted in 0.5% Methyl Cellulose to prepare 0.03-100 mg/2 mL/kg suspension and orally administered to rat using a syringe attached with a sonde. Post-dose mechanical sensitivities of the right and left hind paws were measured at approximately 1 to 5 hours after drug administration. Percent reversal of mechanical allodynia for each rat was calculated using the following formula. The analgesic effects of the compounds were compared.

human PXR, sequence (O75469 whole entry): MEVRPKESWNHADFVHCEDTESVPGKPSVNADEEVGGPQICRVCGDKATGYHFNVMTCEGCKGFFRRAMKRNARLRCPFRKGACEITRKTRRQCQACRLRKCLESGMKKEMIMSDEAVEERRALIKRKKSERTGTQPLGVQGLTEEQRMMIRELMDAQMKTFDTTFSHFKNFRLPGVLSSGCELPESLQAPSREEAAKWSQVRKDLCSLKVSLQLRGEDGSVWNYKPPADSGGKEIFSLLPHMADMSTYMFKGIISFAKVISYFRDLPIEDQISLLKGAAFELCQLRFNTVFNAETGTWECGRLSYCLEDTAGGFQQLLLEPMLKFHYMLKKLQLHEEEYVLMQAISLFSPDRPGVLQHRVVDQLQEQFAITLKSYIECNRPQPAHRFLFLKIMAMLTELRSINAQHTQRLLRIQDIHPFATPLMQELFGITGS
human P2X7 receptor, sequence (Q99572 whole entry R270H): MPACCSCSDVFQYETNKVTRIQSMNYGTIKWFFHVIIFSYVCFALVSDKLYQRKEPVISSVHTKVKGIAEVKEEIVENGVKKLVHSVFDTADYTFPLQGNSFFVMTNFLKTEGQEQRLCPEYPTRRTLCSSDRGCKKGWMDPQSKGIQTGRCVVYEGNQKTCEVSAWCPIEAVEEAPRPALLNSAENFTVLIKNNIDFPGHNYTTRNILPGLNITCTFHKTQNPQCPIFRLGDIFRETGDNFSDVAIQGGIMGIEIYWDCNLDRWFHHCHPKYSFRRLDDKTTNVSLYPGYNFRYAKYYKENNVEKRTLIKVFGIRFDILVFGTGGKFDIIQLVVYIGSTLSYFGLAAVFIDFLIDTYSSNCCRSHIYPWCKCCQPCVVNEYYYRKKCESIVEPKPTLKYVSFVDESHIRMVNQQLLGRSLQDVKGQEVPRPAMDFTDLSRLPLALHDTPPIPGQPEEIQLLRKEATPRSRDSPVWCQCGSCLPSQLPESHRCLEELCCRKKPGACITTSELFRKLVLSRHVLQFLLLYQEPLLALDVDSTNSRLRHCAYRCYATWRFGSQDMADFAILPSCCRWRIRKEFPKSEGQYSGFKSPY

As for `COc1ccc(NC2=NC(=O)N(C)C3=NCC(c4cc(F)c(F)c(F)c4)N23)c(C)c1` (stereo not shown) [Compound I-0135], the IC50 against human P2X7 receptor fell in the range of 10 to 100 nM. Further, the “PXR 10 μM” value on human PXR (compound 10 μM) stood at 3. In addition, the “PXR 50 μM” value on human PXR (compound 50 μM) worked out at 9. Further, in data set [1], the inhibition in vivo at 3 mg/kg worked out at 52%.

For the origin of these results see patent US11066409B2, “Bicyclic nitrogen-containing heterocyclic derivatives and pharmaceutical composition comprising the same” (Shionogi & Co., Ltd., priority 2016, dated 2021).
